# From patent US20250368635A1, “HETEROARYL DERIVATIVE COMPOUND, AND USES THEREOF” (VORONOI, INC., priority 2022, published 2025)
# System: Ba/F3 cells expressing EGFR Del19/C797S (EGFR DC)
# Experiment: Inhibition of proliferation of Ba/F3 cells expressing EGFR Del19/C797S (CellTiter-Glo, 72 h)
# Assay type: cell-based
# Conditions: Mus musculus, BaF3, 72 hours treatment
# Description: The following experiment was performed to evaluate the inhibitory activity of the compounds according to the present invention on the proliferation of Ba/F3 cells expressing EGFR Del19/C797S (EGFR DC) and EGFR L858R/C797S (EGFR LC) mutations.
# Ba/F3 cells were cultured using medium (RPMI-1640) containing 10% fetal bovine serum (FBS) and 5 ng/ml IL-3 (R&D Systems). The transduced Ba/F3 cells were cultured by adding 1 μg/ml puromycin (Invitrogen) to the same medium.
# 24 hours prior to treatment with compounds, 3,000 to 5,000 cells were seeded on a well plate (white clear bottom 96 well plate, Corning). The compounds were diluted in dimethyl sulfoxide (3-fold dilution, total of 12 concentrations) and injected at 1 μl each so that the final concentration was 0.2 nM to 5 μM. After 72 hours post treatment with compounds, living cells were stored at room temperature for 10 minutes using CellTiter-Glo luminescent cell-viability reagent (Promega), and the luminescence intensity thereof was measured using a reader (Synergy Neo, Biotek). Each test was repeated three times. The result values were calculated as a cell growth rate (%) compared to the control group. A graph was created using the GraphPad Prism version 8.3.0 program, and GI50 values were calculated.
row,Structure (SMILES),GI50
1,"COc1cc(N2CCC(C3COC3)CC2)c(-c2cn(C)nc2F)cc1Nc1cc(N2OCC[C@@H]2c2cccc(F)c2F)ncn1 [Example 17, (R)-6-(3-(2,3-difluorophenyl)isoxazolidin-2-yl)-N-(5-(3-fluoro-1-methyl-1H-pyrazol-4-yl)-2-methoxy-4-(4-(oxetan-3-yl)piperidin-1-yl)phenyl)pyrimidin-4-amine]",100 to 1000 nM
2,"COc1cc(N2CCC3(CC2)CC(N(C)C)C3)c(-c2cnn(C)c2)cc1Nc1cc(N2OCC[C@@H]2c2cccc(F)c2F)ncn1 [Example 31, (R)-7-(4-((6-(3-(2,3-difluorophenyl)isoxazolidin-2-yl)pyrimidin-4-yl)amino)-5-methoxy-2-(1-methyl-1H-pyrazol-4-yl)phenyl)-N,N-dimethyl-7-azaspiro[3.5]nonan-2-amine]",< 100 nM
3,"COc1cc(N2CCC3(CCC(OC)CC3)CC2)c(-c2cnn(C)c2)cc1Nc1cc(N2OCC[C@@H]2c2cccc(F)c2F)ncn1 [Example 42, (R)-6-(3-(2,3-difluorophenyl)isoxazolidin-2-yl)-N-(2-methoxy-4-(9-methoxy-3-azaspiro[5.5]undecan-3-yl)-5-(1-methyl-1H-pyrazol-4-yl)phenyl)pyrimidin-4-amine]",100 to 1000 nM
4,"COc1cc(N2CCOC3(CC3)C2)c(-c2cnn(C)c2)cc1Nc1cc(N2OCC[C@@H]2c2cccc(F)c2F)ncn1 [Example 43, (R)-6-(3-(2,3-difluorophenyl)isoxazolidin-2-yl)-N-(2-methoxy-5-(1-methyl-1H-pyrazol-4-yl)-4-(4-oxa-7-azaspiro[2.5]octan-7-yl)phenyl)pyrimidin-4-amine]",100 to 1000 nM
5,"COc1cc(N2C3COCC2C3)c(-c2cnn(C)c2)cc1Nc1cc(N2OCC[C@@H]2c2cccc(F)c2F)ncn1 [Example 44, N-(4-(3-oxa-6-azabicyclo[3.1.1]heptan-6-yl)-2-methoxy-5-(1-methyl-1H-pyrazol-4-yl)phenyl)-6-((R)-3-(2,3-difluorophenyl)isoxazolidin-2-yl)pyrimidin-4-amine]",100 to 1000 nM
6,"COc1cc(N2CCC3(CCOCC3)C2)c(-c2cnn(C)c2)cc1Nc1cc(N2OCC[C@@H]2c2cccc(F)c2F)ncn1 [Example 45, (R)-6-(3-(2,3-difluorophenyl)isoxazolidin-2-yl)-N-(2-methoxy-5-(1-methyl-1H-pyrazol-4-yl)-4-(8-oxa-2-azaspiro[4.5]decan-2-yl)phenyl)pyrimidin-4-amine]",100 to 1000 nM
7,"COc1cc2c(cc1Nc1cc(N3OCC[C@@H]3c3cccc(F)c3F)ncn1)-c1cnn(C)c1CCN2C(C)C [Example 47, (R)-N-(6-(3-(2,3-difluorophenyl)isoxazolidin-2-yl)pyrimidin-4-yl)-6-isopropyl-8-methoxy-3-methyl-3,4,5,6-tetrahydrobenzo[b]pyrazolo [4,3-d]azepin-9-amine]",100 to 1000 nM
8,"COc1cc(N2CCC(N3CC(F)(F)C3)CC2)c(-c2cnn(C)c2)cc1Nc1cc(N2OCC[C@@H]2c2cccc(F)c2F)ncn1 [Example 55, (R)-N-(4-(4-(3,3-difluoroazetidin-1-yl)piperidin-1-yl)-2-methoxy-5-(1-methyl-1H-pyrazol-4-yl)phenyl)-6-(3-(2,3-difluorophenyl)isoxazolidin-2-yl)pyrimidin-4-amine]",< 100 nM
9,"COc1cc(N2CCC(N3CCC(F)(F)CC3)CC2)c(-c2cnn(C)c2)cc1Nc1cc(N2OCC[C@@H]2c2cccc(F)c2F)ncn1 [Example 61, (R)-N-(4-(4,4-difluoro-[1,4′-bipiperidin]-1′-yl)-2-methoxy-5-(1-methyl-1H-pyrazol-4-yl)phenyl)-6-(3-(2,3-difluorophenyl)isoxazolidin-2-yl)pyrimidin-4-amine]",100 to 1000 nM
10,"COc1cc(N2CCC3CCN(C)C3C2)c(-c2cnn(C)c2)cc1Nc1cc(N2OCC[C@@H]2c2cccc(F)c2F)ncn1 (stereo partly drawn) [Example 62, 6-((R)-3-(2,3-difluorophenyl)isoxazolidin-2-yl)-N-(2-methoxy-5-(1-methyl-1H-pyrazol-4-yl)-4-(1-methyloctahydro-6H-pyrrolo[2,3-c]pyridin-6-yl)phenyl)pyrimidin-4-amine]",< 100 nM
11,"COc1cc(N2CCC(CN3CCC(CC(F)(F)F)C3)CC2)c(-c2cnn(C)c2)cc1Nc1cc(N2OCC[C@@H]2c2cccc(F)c2F)ncn1 (stereo partly drawn) [Example 63, 6-((R)-3-(2,3-difluorophenyl)isoxazolidin-2-yl)-N-(2-methoxy-5-(1-methyl-1H-pyrazol-4-yl)-4-(4-((3-(2,2,2-trifluoroethyl)pyrrolidin-1-yl)methyl)piperidin-1-yl)phenyl)pyrimidin-4-amine]",< 100 nM
12,"COc1cc(N2CC[C@@H](OC)[C@@H](F)C2)c(-c2cnn(C)c2)cc1Nc1cc(N2OCC[C@@H]2c2cccc(F)c2F)ncn1 [Example 66, 6-((R)-3-(2,3-difluorophenyl)isoxazolidin-2-yl)-N-(4-((3,4R)-3-fluoro-4-methoxypiperidin-1-yl)-2-methoxy-5-(1-methyl-1H-pyrazol-4-yl)phenyl)pyrimidin-4-amine]",100 to 1000 nM
13,"COc1cc(N2CC[C@H](OC)[C@H](F)C2)c(-c2cnn(C)c2)cc1Nc1cc(N2OCC[C@@H]2c2cccc(F)c2F)ncn1 [Example 67, 6-((R)-3-(2,3-difluorophenyl)isoxazolidin-2-yl)-N-(4-((3R,4S)-3-fluoro-4-methoxypiperidin-1-yl)-2-methoxy-5-(1-methyl-1H-pyrazol-4-yl)phenyl)pyrimidin-4-amine]",< 100 nM
14,"COc1cc(N2CCC(N3CC[C@H](OC)C3)CC2)c(-c2cnn(C)c2)cc1Nc1cc(N2OCC[C@@H]2c2cccc(F)c2F)ncn1 [Example 70, 6-((R)-3-(2,3-difluorophenyl)isoxazolidin-2-yl)-N-(2-methoxy-4-(4-((S)-3-methoxypyrrolidin-1-yl)piperidin-1-yl)-5-(1-methyl-1H-pyrazol-4-yl)phenyl)pyrimidin-4-amine]",100 to 1000 nM
15,"COc1cc(N2CCC(N3CC[C@H](F)C3)CC2)c(-c2cnn(C)c2)cc1Nc1cc(N2OCC[C@@H]2c2cccc(F)c2F)ncn1 [Example 71, 6-((R)-3-(2,3-difluorophenyl)isoxazolidin-2-yl)-N-(4-(4-((S)-3-fluoropyrrolidin-1-yl)piperidin-1-yl)-2-methoxy-5-(1-methyl-1H-pyrazol-4-yl)phenyl)pyrimidin-4-amine]",100 to 1000 nM
16,"COc1cc(N2CCC(N3CCOC(C(F)(F)F)C3)CC2)c(-c2cnn(C)c2)cc1Nc1cc(N2OCC[C@@H]2c2cccc(F)c2F)ncn1 (stereo partly drawn) [Example 73, 6-((R)-3-(2,3-difluorophenyl)isoxazolidin-2-yl)-N-(2-methoxy-5-(1-methyl-1H-pyrazol-4-yl)-4-(4-(2-(trifluoromethyl)morpholino)piperidin-1-yl)phenyl)pyrimidin-4-amine]",100 to 1000 nM

# Continued, values first:
row,GI50,Structure (SMILES)
1,< 100 nM,"COc1cc(N2CCOCC2)c(-c2cn(C)nc2F)cc1Nc1cc(N2OCC[C@@H]2c2cccc(F)c2F)ncn1 [Example 16, (R)-6-(3-(2,3-difluorophenyl)isoxazolidin-2-yl)-N-(5-(3-fluoro-1-methyl-1H-pyrazol-4-yl)-2-methoxy-4-morpholinophenyl)pyrimidin-4-amine]"
2,< 100 nM,"COc1cc(N2CCC(N3CCOCC3)CC2)c(-c2cnn(C)c2)cc1Nc1cc(N2OCC[C@@H]2c2cccc(F)c2F)ncn1 [Example 46, (R)-6-(3-(2,3-difluorophenyl)isoxazolidin-2-yl)-N-(2-methoxy-5-(1-methyl-1H-pyrazol-4-yl)-4-(4-morpholinopiperidin-1-yl)phenyl)pyrimidin-4-amine]"
3,< 100 nM,"COc1cc(N2CCC3(CC2)CCN(C2COC2)CC3)c(-c2cnn(C)c2)cc1Nc1cc(N2OCC[C@@H]2c2cccc(F)c2F)ncn1 [Example 56, (R)-6-(3-(2,3-difluorophenyl)isoxazolidin-2-yl)-N-(2-methoxy-5-(1-methyl-1H-pyrazol-4-yl)-4-(9-(oxetan-3-yl)-3,9-diazaspiro[5.5]undecan-3-yl)phenyl)pyrimidin-4-amine]"
4,100 to 1000 nM,"COc1cc(C23CCOCC2C3)c(-c2cnn(C)c2)cc1Nc1cc(N2OCC[C@@H]2c2cccc(F)c2F)ncn1 (stereo partly drawn) [Example 59, N-(4-(3-oxabicyclo[4.1.0]heptan-6-yl)-2-methoxy-5-(1-methyl-1H-pyrazol-4-yl)phenyl)-6-((R)-3-(2,3-difluorophenyl)isoxazolidin-2-yl)pyrimidin-4-amine]"
5,100 to 1000 nM,"COc1cc(C23CCOCC2C3(F)F)c(-c2cnn(C)c2)cc1Nc1cc(N2OCC[C@@H]2c2cccc(F)c2F)ncn1 (stereo partly drawn) [Example 60, N-(4-(7,7-difluoro-3-oxabicyclo[4.1.0]heptan-6-yl)-2-methoxy-5-(1-methyl-1H-pyrazol-4-yl)phenyl)-6-((R)-3-(2,3-difluorophenyl)isoxazolidin-2-yl)pyrimidin-4-amine]"
6,100 to 1000 nM,"COc1cc(N2CCC(N3CC[C@@H](OC)[C@@H](F)C3)CC2)c(-c2cnn(C)c2)cc1Nc1cc(N2OCC[C@@H]2c2cccc(F)c2F)ncn1 [Example 64, 6-((R)-3-(2,3-difluorophenyl)isoxazolidin-2-yl)-N-(4-((3,4R)-3-fluoro-4-methoxy-[1,4′-bipiperidin]-1′-yl)-2-methoxy-5-(1-methyl-1H-pyrazol-4-yl)phenyl)pyrimidin-4-amine]"
7,100 to 1000 nM,"COc1cc(N2CCN(C)CC2)c(-c2ccoc2)cc1Nc1cc(N2OCC[C@@H]2c2cccc(F)c2F)ncn1 [Example 75, (R)-6-(3-(2,3-difluorophenyl)isoxazolidin-2-yl)-N-(5-(furan-3-yl)-2-methoxy-4-(4-methylpiperazin-1-yl)phenyl)pyrimidin-4-amine]"
